{
  "source": "paper PMC12814364",
  "about": "(Journal of the American Chemical Society, 2025)",
  "key": {"[1]": {"molecular_target": "T1, HBHA110–199 (Mycobacterium tuberculosis, UniProt P9WIP9)", "details": "cited from earlier work"}, "[2]": {"molecular_target": "T1, HBHA110–199", "assay": "ITC binding of HS hexadecasaccharides with HBHA110–199"}, "[3]": {"molecular_target": "T2, full-length HBHA (Mycobacterium tuberculosis, UniProt P9WIP9)", "T2 sequence (P9WIP9 1-199)": "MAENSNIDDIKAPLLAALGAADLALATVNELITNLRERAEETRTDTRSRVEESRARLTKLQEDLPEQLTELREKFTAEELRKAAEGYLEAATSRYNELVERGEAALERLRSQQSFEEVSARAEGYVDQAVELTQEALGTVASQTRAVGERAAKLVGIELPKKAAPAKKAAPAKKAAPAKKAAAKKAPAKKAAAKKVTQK", "assay": "Far-UV circular dichroism of full-length HBHA with added sugar", "details": "varying equivalents added; negative control"}},
  "note": "“Also recorded” adds a separate entry of the source. Read-outs that look alike come from different tables or passages of the source.",
  "data": [
    {"smiles": "O=C(O)[C@@H]1O[C@@H](O[C@H]2[C@H](O)[C@@H](NS(=O)(=O)O)[C@@H](O[C@H]3[C@H](O)[C@@H](OS(=O)(=O)O)[C@H]4OC[C@@H]3O4)O[C@@H]2COS(=O)(=O)O)[C@H](OS(=O)(=O)O)[C@@H](O)[C@@H]1O[C@H]1O[C@H](COS(=O)(=O)O)[C@@H](O[C@@H]2O[C@@H](C(=O)O)[C@@H](O[C@H]3O[C@H](COS(=O)(=O)O)[C@@H](O[C@@H]4O[C@@H](C(=O)O)[C@@H](O[C@H]5O[C@H](COS(=O)(=O)O)[C@@H](O)[C@H](O)[C@H]5NS(=O)(=O)O)[C@H](O)[C@H]4OS(=O)(=O)O)[C@H](O)[C@H]3NS(=O)(=O)O)[C@H](O)[C@H]2OS(=O)(=O)O)[C@H](O)[C@H]1NS(=O)(=O)O", "note": "[HS8]", "values": [
      {"measurement": "Kd", "setting": "[1]; Average of Repeat I P(KKAA), residue 160-164, read-out: Dissociation constant from NMR cross-peak movement, average", "value": 24.5, "unit": "µM"},
      {"measurement": "Kd", "setting": "[1]; Average of Repeat II P(AKKAA), residue 165-170, read-out: Dissociation constant from NMR cross-peak movement, average", "value": 11.8, "unit": "µM"},
      {"measurement": "Kd", "setting": "[1]; Average of Repeat III P(AKKAA), residue 171-176, read-out: Dissociation constant from NMR cross-peak movement, average", "value": 6.9, "unit": "µM"},
      {"measurement": "Kd", "setting": "[1]; Average of Repeat IV P(AKKAAAKKA), residue 177-186, read-out: Dissociation constant from NMR cross-peak movement, average", "value": 6.2, "unit": "µM"},
      {"measurement": "Kd", "setting": "[1]; Average of Repeat V P(AKKAAAKKV), residue 187-196, read-out: Dissociation constant from NMR cross-peak movement, average", "value": 4.6, "unit": "µM"},
      {"measurement": "average Δδresidue (weighted chemical shift deviation) of HBHA110–199", "setting": "[1]; protein-to-sugar molar ratio 1:2, all residues, reported previously, ref Huang et al., 2017", "value": 0.019, "unit": "ppm"},
      {"measurement": "Kd", "setting": "[1]; residue A163, Repeat I, read-out: Dissociation constant from NMR cross-peak movement", "value": 20.7, "unit": "µM"},
      {"measurement": "Kd", "setting": "[1]; residue A164, Repeat I, read-out: Dissociation constant from NMR cross-peak movement", "value": 22.2, "unit": "µM"},
      {"measurement": "Kd", "setting": "[1]; residue A166, Repeat II, read-out: Dissociation constant from NMR cross-peak movement", "value": 14.4, "unit": "µM"},
      {"measurement": "Kd", "setting": "[1]; residue A169, Repeat II, read-out: Dissociation constant from NMR cross-peak movement", "value": 14.6, "unit": "µM"},
      {"measurement": "Kd", "setting": "[1]; residue A170, Repeat II, read-out: Dissociation constant from NMR cross-peak movement", "value": 8.3, "unit": "µM"},
      {"measurement": "Kd", "setting": "[1]; residue A172, Repeat III, read-out: Dissociation constant from NMR cross-peak movement", "value": 10.3, "unit": "µM"},
      {"measurement": "Kd", "setting": "[1]; residue A175, Repeat III, read-out: Dissociation constant from NMR cross-peak movement", "value": 8.5, "unit": "µM"},
      {"measurement": "Kd", "setting": "[1]; residue A176, Repeat III, read-out: Dissociation constant from NMR cross-peak movement", "value": 5, "unit": "µM"},
      {"measurement": "Kd", "setting": "[1]; residue A178, Repeat IV, read-out: Dissociation constant from NMR cross-peak movement", "value": 4.8, "unit": "µM"},
      {"measurement": "Kd", "setting": "[1]; residue A181, Repeat IV, read-out: Dissociation constant from NMR cross-peak movement", "value": 4.8, "unit": "µM"},
      {"measurement": "Kd", "setting": "[1]; residue A182, Repeat IV, read-out: Dissociation constant from NMR cross-peak movement", "value": 4.6, "unit": "µM"},
      {"measurement": "Kd", "setting": "[1]; residue A183, Repeat IV, read-out: Dissociation constant from NMR cross-peak movement", "value": 4.6, "unit": "µM"},
      {"measurement": "Kd", "setting": "[1]; residue A186, Repeat IV, read-out: Dissociation constant from NMR cross-peak movement", "value": 3.1, "unit": "µM"},
      {"measurement": "Kd", "setting": "[1]; residue A188, Repeat V, read-out: Dissociation constant from NMR cross-peak movement", "value": 4.8, "unit": "µM"},
      {"measurement": "Kd", "setting": "[1]; residue A191, Repeat V, read-out: Dissociation constant from NMR cross-peak movement", "value": 5.3, "unit": "µM"},
      {"measurement": "Kd", "setting": "[1]; residue A192, Repeat V, read-out: Dissociation constant from NMR cross-peak movement", "value": 4.6, "unit": "µM"},
      {"measurement": "Kd", "setting": "[1]; residue A193, Repeat V, read-out: Dissociation constant from NMR cross-peak movement", "value": 4.8, "unit": "µM"},
      {"measurement": "Kd", "setting": "[1]; residue K161, Repeat I, read-out: Dissociation constant from NMR cross-peak movement", "value": 9.8, "unit": "µM"},
      {"measurement": "Kd", "setting": "[1]; residue K162, Repeat I, read-out: Dissociation constant from NMR cross-peak movement", "value": 45.3, "unit": "µM"},
      {"measurement": "Kd", "setting": "[1]; residue K167, Repeat II, read-out: Dissociation constant from NMR cross-peak movement", "value": 4.2, "unit": "µM"},
      {"measurement": "Kd", "setting": "[1]; residue K168, Repeat II, read-out: Dissociation constant from NMR cross-peak movement", "value": 17.2, "unit": "µM"},
      {"measurement": "Kd", "setting": "[1]; residue K173, Repeat III, read-out: Dissociation constant from NMR cross-peak movement", "value": 4.2, "unit": "µM"},
      {"measurement": "Kd", "setting": "[1]; residue K174, Repeat III, read-out: Dissociation constant from NMR cross-peak movement", "value": 6.6, "unit": "µM"},
      {"measurement": "Kd", "setting": "[1]; residue K179, Repeat IV, read-out: Dissociation constant from NMR cross-peak movement", "value": 6.6, "unit": "µM"},
      {"measurement": "Kd", "setting": "[1]; residue K180, Repeat IV, read-out: Dissociation constant from NMR cross-peak movement", "value": 4.1, "unit": "µM"},
      {"measurement": "Kd", "setting": "[1]; residue K184, Repeat IV, read-out: Dissociation constant from NMR cross-peak movement", "value": 18.3, "unit": "µM"},
      {"measurement": "Kd", "setting": "[1]; residue K185, Repeat IV, read-out: Dissociation constant from NMR cross-peak movement", "value": 4.5, "unit": "µM"},
      {"measurement": "Kd", "setting": "[1]; residue K189, Repeat V, read-out: Dissociation constant from NMR cross-peak movement", "value": 5.9, "unit": "µM"},
      {"measurement": "Kd", "setting": "[1]; residue K190, Repeat V, read-out: Dissociation constant from NMR cross-peak movement", "value": 4.1, "unit": "µM"},
      {"measurement": "Kd", "setting": "[1]; residue K194, Repeat V, read-out: Dissociation constant from NMR cross-peak movement", "value": 4.9, "unit": "µM"},
      {"measurement": "Kd", "setting": "[1]; residue K195, Repeat V, read-out: Dissociation constant from NMR cross-peak movement", "value": 4.6, "unit": "µM"},
      {"measurement": "Kd", "setting": "[1]; residue V196, Repeat V, read-out: Dissociation constant from NMR cross-peak movement", "value": 2.7, "unit": "µM"},
      {"measurement": "n (sugar-to-protein binding ratio)", "setting": "[2]; 25 °C, Tris buffer pH 7.6", "value": "0.56 ± 0.01"},
      {"measurement": "ΔG", "setting": "[2]; 25 °C, Tris buffer pH 7.6", "value": "–7.68 ± 0.08 kcal/mol"},
      {"measurement": "ΔH", "setting": "[2]; 25 °C, Tris buffer pH 7.6", "value": "5.38 ± 0.05", "unit": "kcal/mol"},
      {"measurement": "–TΔS", "setting": "[2]; 25 °C, Tris buffer pH 7.6", "value": "–13.05 ± 0.07 kcal/mol"},
      {"measurement": "Kd", "setting": "[2]; Tris buffer pH 7.6, 25 °C, two trials, average ± standard deviation, read-out: dissociation constant, KD", "value": "2.4 ± 0.3", "unit": "µM"}
    ]},
    {"smiles": "CC(=O)N[C@H]1[C@@H](O[C@H]2[C@H](O)[C@@H](O)[C@H]3OC[C@@H]2O3)O[C@H](CO)[C@@H](O[C@@H]2O[C@@H](C(=O)O)[C@@H](O[C@H]3O[C@H](CO)[C@@H](O[C@@H]4O[C@@H](C(=O)O)[C@@H](O[C@H]5O[C@H](CO)[C@@H](O[C@@H]6O[C@@H](C(=O)O)[C@@H](O[C@H]7O[C@H](CO)[C@@H](O[C@@H]8O[C@@H](C(=O)O)[C@@H](O[C@H]9O[C@H](CO)[C@@H](O[C@@H]%10O[C@@H](C(=O)O)[C@@H](O[C@H]%11O[C@H](CO)[C@@H](O[C@@H]%12O[C@@H](C(=O)O)[C@@H](O[C@H]%13O[C@H](CO)[C@@H](O[C@@H]%14O[C@@H](C(=O)O)[C@@H](O[C@H]%15O[C@H](CO)[C@@H](O)[C@H](O)[C@H]%15NC(C)=O)[C@H](O)[C@H]%14O)[C@H](O)[C@H]%13NC(C)=O)[C@H](O)[C@H]%12O)[C@H](O)[C@H]%11NC(C)=O)[C@H](O)[C@H]%10O)[C@H](O)[C@H]9NC(C)=O)[C@H](O)[C@H]8O)[C@H](O)[C@H]7NC(C)=O)[C@H](O)[C@H]6O)[C@H](O)[C@H]5NC(C)=O)[C@H](O)[C@H]4O)[C@H](O)[C@H]3NC(C)=O)[C@H](O)[C@H]2O)[C@@H]1O", "note": "[compound 20]", "values": [
      {"measurement": "conformational change of full-length HBHA (CD)", "setting": "[3]", "value": "did not induce any significant conformational change"},
      {"measurement": "dissociation constant, KD", "setting": "[2]; Tris buffer pH 7.6, 25 °C, two trials, average ± standard deviation", "value": "no detectable binding; also recorded: no binding detected"}
    ]}
  ]
}
